Consider 16 compounds from paper PMC8765781, “A platform of assays for the discovery of anti-Zika small-molecules with activity in a 3D-bioprinted outer-blood-retina model” (PLoS ONE, 2022).

The term AC50 denotes the concentration at which the activity in the assay is half-maximal.

The assay relates to wild-type ZIKV (Ugandan MR766 strain) in Vero cells. The assay is described as follows: ZIKV cytopathic effect (CPE) inhibition qHTS assay, CellTiter-Glo readout. Type of assay: cell-based, Zika virus.
[1] abbreviates: Zika virus, Vero, read-out: Log AC50 (M) (converted).

The structures appear in SMILES notation. Like-named read-outs stand apart in the source and are kept apart here.

As for `CN(CC[C@H](N)CC(=O)N[C@H]1C=C[C@@H](n2ccc(N)nc2=O)O[C@@H]1C(=O)O)C(=N)N` [NCGC00386414-01], the “CC-v2 (curve class classification of the dose response curve)” value (“CC-v2” below) is reported as -1.1 and the Efficacy is -84.972. For the same compound, the activity (Zika virus, Vero) was half-maximal at 2.66e-06 M (AC50). Further, the AC50 under setting [1] is 2.66e-06 M.
The compound `CCOCCn1nc(CC)c2nc(N3CCC(C(=O)O)CC3)nc(Nc3cc(C)ccn3)c21` [NCGC00386619-01] displayed an Efficacy of -25.995. Besides, half-maximal activity (Zika virus, Vero) (AC50) was put at 4.11e-05 M. The AC50 under setting [1] is 4.11e-05 M.
The compound `CC(C)C[C@H](CO)Nc1nc(S[C@@H](C)c2ccccc2)nc2nc(N)sc12` [NCGC00386735-01] gave an Efficacy of -23.549. Also, half-maximal activity (Zika virus, Vero) (AC50) was put at 5.17e-05 M. Also, under setting [1], the AC50 is 5.17e-05 M.
In the case of `C=C(C)[C@@H]1CC=C(COC(=O)NC(=O)c2ncn3c(=O)n(C)nnc23)CC1` [NCGC00386754-01], the “CC-v2” value was -3 and the Efficacy was -41.908. Besides, the activity (Zika virus, Vero) was half-maximal at 6.51e-05 M (AC50). Besides, the AC50 under setting [1] is 6.51e-05 M.
As to `Cc1cc(N2CCN(C(=O)Oc3ccc(-c4ccccc4)cn3)CC2)c2ccccc2n1` [NCGC00386928-01], the “CC-v2” value is recorded as -3 and the Efficacy is listed as -62.282.
`Cc1cc(C(=O)Nc2cc(Nc3ccc4c(/C=C/c5ccccn5)[nH]nc4c3)ccc2F)n(C)n1` [NCGC00387023-01]: the Efficacy is -55.32. In addition, the AC50 (Zika virus, Vero) was determined as 3.66e-05 M. The AC50 under setting [1] was 3.66e-05 M.
Regarding `CC1(C)CC=C(C#Cc2ccccc2)c2cc(/C=C/c3ccc(C(=O)O)cc3)ccc21` [NCGC00387103-01], the “CC-v2” value is reported as -2.2 and the Efficacy is reported as -97.274. This compound showed an AC50 (Zika virus, Vero) of 5.17e-05 M. For the same compound, under setting [1], the AC50 is 5.17e-05 M.
For `CCOC(=O)C1=C(N)Oc2ccc(Cl)cc2C1C(C#N)C(=O)OCC` (stereo not drawn) [NCGC00387181-02], the “CC-v2” value was -2.2 and the Efficacy was -45.481. Where the note is “Zika virus, Vero”, this compound registered an AC50 of 3.66e-05 M. Moreover, the AC50 under setting [1] is 3.66e-05 M.
The compound `Cc1cc(C(=O)Nc2cccc(C(=O)Nc3cccc(C(F)(F)F)c3)c2)on1` [NCGC00387256-02] showed an Efficacy of -18.226. This compound yielded an AC50 (Zika virus, Vero) of 7.31e-05 M. In addition, under setting [1], the AC50 was 7.31e-05 M.
In turn, `Cc1cc2c(F)c(Oc3ncnn4cc(OCC(C)OC(=O)C(C)N)c(C)c34)ccc2[nH]1` (stereo not drawn) [NCGC00389340-01] showed a Curve class of -3 and an Efficacy of -57.426. Moreover, under “Zika virus, Vero, read-out: Max response”, the Emax was -49.7%.
As to `Cc1cc(OCCC[S+](C)(=O)[O-])cc(C)c1-c1cccc(COc2ccc3c(c2)OCC3CC(=O)O)c1` (stereo not drawn) [NCGC00389617-01], the “CC-v2” value is given as -3 and the Efficacy was -41.849. The compound also registered an AC50 (Zika virus, Vero) of 2.31e-05 M. For the same compound, the half-maximal activity concentration (AC50) under setting [1] was 2.31e-05 M.
Consider `Cc1cc2c(F)c(Oc3ncnn4cc(OCC(C)O)c(C)c34)ccc2[nH]1` (stereo not drawn) [NCGC00389770-01], for which the Efficacy is listed as -29.933. The compound also yielded an AC50 (Zika virus, Vero) of 6.51e-05 M. Moreover, the AC50 under setting [1] is 6.51e-05 M.
For `COc1cc(N(C)CCN(C)C)c(N)cc1Nc1nccc(-c2cn(C)c3ccccc23)n1` [NCGC00390638-01], the “CC-v2” value is -3 and the Efficacy is -48.353. Where the note is “Zika virus, Vero”, this compound registered an AC50 of 6.51e-05 M. Besides, under setting [1], the AC50 was 6.51e-05 M.
With `CCC(=C(c1ccc(OCCN2CCCC2)cc1)c1ccc(OCCN2CCCC2)cc1)c1ccccc1` [NCGC00408918-01], the “CC-v2” value is -3 and the Efficacy is reported as -39.621. Moreover, the AC50 (Zika virus, Vero) worked out at 5.8e-05 M. In addition, under setting [1], the AC50 was 5.8e-05 M.
As for `C=CC(=O)N1CCCN(c2cc(NCCC(=O)O)nc(-c3ccccn3)n2)CC1` [NCGC00420854-01], the Efficacy is reported as -33.164. This compound also registered an AC50 (Zika virus, Vero) of 5.8e-05 M. Moreover, the AC50 under setting [1] is 5.8e-05 M.
Compound `C=Cc1cc2oc(-c3ccc(O)c(F)c3)nc2cc1O` [NCGC00485115-01] gave an Efficacy of -24.649. Moreover, the activity (Zika virus, Vero) was half-maximal at 6.51e-05 M (AC50). Also, the AC50 under setting [1] is 6.51e-05 M.
